# Assay results from US20250230193A1, “CYCLIC COMPOUND HAVING SELECTIVE KRAS INHIBITORY EFFECT ON HRAS AND NRAS” (CHUGAI SEIYAKU KABUSHIKI KAISHA, priority 2022, published 2025).
# Where a SMILES comes first, the peptide text is derived from it. Bridges are numbered along the chain shown (N, C = ends). [ ]: non-standard residue; d: D form. The star is where a group is joined. hPhe(3-Cl-4-CF3) = N[C@@H](CCc1ccc(C(F)(F)F)c(Cl)c1)C(=O)O; NPrPhe(4-CF3) = CCCN[C@@H](Cc1ccc(C(F)(F)F)cc1)C(=O)O; NMeGly(cPent) = CN[C@H](C(=O)O)C1CCCC1; NMeF = CN[C@@H](Cc1ccccc1)C(=O)O; NMeD = CN[C@@H](CC(=O)O)C(=O)O; NMeL = CN[C@@H](CC(C)C)C(=O)O; Morpholide = C1CN(*)CCO1; Ac5c = NC1(C(=O)O)CCCC1; Aze = O=C(O)[C@@H]1CCN1; NEtG = CCNCC(=O)O; Sar = CNCC(=O)O
# Key:
# [1] = molecular target: GDP-bound NRAS wild-type protein (Homo sapiens, UniProt P01111); assay: Binding to NRAS by surface plasmon resonance (SPR), Single Cycle Kinetics
# [2] = molecular target: GDP-bound HRAS wild-type protein (Homo sapiens, UniProt P01112); assay: Binding to HRAS by surface plasmon resonance (SPR), Single Cycle Kinetics
# [3] = SPR, GDP-bound NRAS wild-type vs GDP-bound KRAS wild-type
# [4] = SPR, GDP-bound HRAS wild-type vs GDP-bound KRAS wild-type
# GDP-bound NRAS wild-type protein, sequence (P01111 whole entry): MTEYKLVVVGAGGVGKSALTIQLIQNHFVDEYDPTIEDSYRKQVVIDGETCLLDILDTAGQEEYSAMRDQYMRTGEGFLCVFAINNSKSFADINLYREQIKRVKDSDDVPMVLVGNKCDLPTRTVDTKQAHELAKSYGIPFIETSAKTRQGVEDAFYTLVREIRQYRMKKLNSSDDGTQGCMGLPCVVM
# GDP-bound HRAS wild-type protein, sequence (P01112 whole entry): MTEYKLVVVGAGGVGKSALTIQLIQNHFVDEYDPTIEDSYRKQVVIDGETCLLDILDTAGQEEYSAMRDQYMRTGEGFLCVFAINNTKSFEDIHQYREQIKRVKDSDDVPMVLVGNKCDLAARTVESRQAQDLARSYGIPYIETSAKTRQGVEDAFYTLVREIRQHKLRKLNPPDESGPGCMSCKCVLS
smiles,measurement,setting,value
CCC[C@H]1C(=O)N[C@@H]([C@@H](C)CC)C(=O)N(C)CC(=O)N(C)[C@H]2C/C=C\CCN(C2=O)[C@@H](Cc2ccc(C(F)F)cc2)C(=O)N(C)CC(=O)N[C@@H](CCc2ccc(Cl)c(Cl)c2)C(=O)N2C[C@H](OCC)C[C@H]2C(=O)NC2(CC(C)(C)C2)C(=O)N(C)[C@@H](C(CC)CC)C(=O)N(C)[C@H](C(=O)N(C)C)CC(=O)N1C [PP2531],NRAS/KRAS (ratio of KD value with respect to GDP-bound NRAS wild-type protein to KD value with respect to KRAS),[1]; class symbols,AA (a compound having 20 or more is denoted as AA)
same,HRAS/KRAS (ratio of KD value with respect to GDP-bound HRAS wild-type protein to KD value with respect to KRAS),[2]; class symbols,A (a compound having 10 or more and less than 20 is denoted as A)
CCCOC[C@H]1C(=O)N[C@@H]([C@@H](C)CC)C(=O)N2CCC[C@H]2C(=O)N(C)[C@H]2C/C=C\CCN(C2=O)[C@@H](Cc2ccc(C)cc2)C(=O)N(C)CC(=O)N[C@@H](CCc2ccc(C(F)(F)F)c(OC)c2)C(=O)N2C[C@H](OCC)C[C@H]2C(=O)N(C)C2(CCC2)C(=O)N(C)[C@@H](C(CC)CC)C(=O)N(C)[C@H](C(=O)N(C)C)CC(=O)N1C [PP2331],NRAS/KRAS (ratio of KD value with respect to NRAS to KD value with respect to KRAS),[1]; [3],AA (a compound having 20 or more is denoted as AA)
same,HRAS/KRAS (ratio of KD value with respect to HRAS to KD value with respect to KRAS),[2]; [4],A (a compound having 10 or more and less than 20 is denoted as A)
CC[C@H](C)[C@@H]1NC(=O)[C@H](CC(C)C)N(C)C(=O)C[C@@H](C(=O)N2CCOCC2)N(C)C(=O)[C@H](C2CCCC2)N(C)C(=O)C2(CCCC2)NC(=O)[C@@H]2CCCN2C(=O)[C@H](CCc2ccc(C(F)(F)F)c(Cl)c2)NC(=O)CN(C)C(=O)[C@H](Cc2ccccc2)N(C)C(=O)CN(C)C(=O)CN(C)C1=O [PP0039] ([NMeL]I[Sar][Sar][NMeF][Sar][hPhe(3-Cl-4-CF3)]P[Ac5c][NMeGly(cPent)][NMeD]-Morpholide; lactam N-11),NRAS/KRAS (ratio of KD for GDP-bound NRAS wild-type to KD for KRAS),[1]; SPR,C (A compound having a KD ratio of 0.1 or more and less than 3 is denoted as C)
same,HRAS/KRAS (ratio of KD for GDP-bound HRAS wild-type to KD for KRAS),[2]; SPR,C (A compound having a KD ratio of 0.1 or more and less than 3 is denoted as C)
CCO[C@@H]1C[C@H]2C(=O)NC3(CC(C)(C)C3)C(=O)N(C)[C@@H](C3CCCC3)C(=O)N(C)[C@H](C(=O)N(C)C)CC(=O)N(C)[C@@H](COC)C(=O)N[C@@H]([C@@H](C)CC)C(=O)N(C)CC(=O)N(C)[C@H]3C/C=C\CCN(C3=O)[C@@H](Cc3ccc(C)cc3)C(=O)N(C)CC(=O)N[C@@H](CCc3ccc(C(F)(F)F)c(Cl)c3)C(=O)N2C1 [PP2389],NRAS/KRAS (ratio of KD value with respect to NRAS to KD value with respect to KRAS),[1]; [3],A (a compound having 10 or more and less than 20 is denoted as A)
same,HRAS/KRAS (ratio of KD value with respect to HRAS to KD value with respect to KRAS),[2]; [4],B (a compound having 3 or more and less than 10 is denoted as B)
CCO[C@@H]1C[C@H]2C(=O)NC3(CCC3)C(=O)N(C)[C@@H](C3CCCC3)C(=O)N(CCC3CCC3)[C@H](C(=O)N3CCOCC3)CC(=O)N(C)[C@@H](CC(C)C)C(=O)N[C@@H]([C@@H](C)CC)C(=O)N(C)CC(=O)N(C)[C@H]3CCCCCN(C3=O)[C@@H](Cc3ccc(C(F)(F)F)cc3)C(=O)N(C)CC(=O)N[C@@H](CCc3cc(F)c(C(F)(F)F)c(F)c3)C(=O)N2C1 [PP0640],NRAS/KRAS (ratio of KD value with respect to GDP-bound NRAS wild-type protein to KD value with respect to KRAS),[1]; SPR,B (a compound having 3 or more and less than 10 is denoted as B)
same,HRAS/KRAS (ratio of KD value with respect to GDP-bound HRAS wild-type protein to KD value with respect to KRAS),[2]; SPR,B (a compound having 3 or more and less than 10 is denoted as B)
CC[C@H](C)[C@@H]1NC(=O)[C@H](CC(C)C)N(C)C(=O)C[C@@H](C(=O)N2CCOCC2)N(C)C(=O)[C@H](C2CCCC2)N(C)C(=O)C2(CCOCC2)NC(=O)[C@@H]2CCCN2C(=O)[C@H](CCc2cc(F)c(C(F)(F)F)c(F)c2)NC(=O)CN(C)C(=O)[C@H](Cc2ccc(C(F)(F)F)cc2)N2CCCCC[C@@H](C2=O)N(C)C(=O)CN(C)C1=O [PP0502],NRAS/KRAS (ratio of KD value with respect to GDP-bound NRAS wild-type protein to KD value with respect to KRAS),[1]; SPR,A (a compound having 10 or more and less than 20 is denoted as A)
same,HRAS/KRAS (ratio of KD value with respect to GDP-bound HRAS wild-type protein to KD value with respect to KRAS),[2]; SPR,B (a compound having 3 or more and less than 10 is denoted as B)
CCO[C@@H]1C[C@H]2C(=O)NC3(CC(C)(C)C3)C(=O)N(C)[C@@H](C3CCCC3)C(=O)N(C)[C@H](C(=O)N(C)CC)CC(=O)N(C)[C@@H](COC)C(=O)N[C@@H]([C@@H](C)CC)C(=O)N(C)CC(=O)N(C)[C@H]3C/C=C\CCN(C3=O)[C@@H](Cc3ccc(C(F)(F)F)cc3)C(=O)N(C)CC(=O)N[C@@H](CCc3cc(F)c(C(F)(F)F)c(F)c3)C(=O)N2C1 [PP1671],NRAS/KRAS (ratio of KD value for NRAS to KD value for KRAS),"[1]; KD ratio, GDP-bound NRAS wild-type vs GDP-bound KRAS wild-type, SPR",A (a compound having 10 or more and less than 20 is denoted as A)
same,HRAS/KRAS (ratio of KD value for HRAS to KD value for KRAS),"[2]; KD ratio, GDP-bound HRAS wild-type vs GDP-bound KRAS wild-type, SPR",A (a compound having 10 or more and less than 20 is denoted as A)
CCCN1C(=O)[C@@H]2CCN2C(=O)CN(CC)C(=O)[C@H]([C@@H](C)CC)NC(=O)[C@H](CC(C)C)N(C)C(=O)C[C@@H](C(=O)N2CCOCC2)N(C)C(=O)[C@H](C2CCCC2)N(C)C(=O)C2(CCCC2)NC(=O)[C@@H]2CCCN2C(=O)[C@H](CCc2ccc(C(F)(F)F)c(Cl)c2)NC(=O)CN(C)C(=O)[C@@H]1Cc1ccc(C(F)(F)F)cc1 [PP0259] ([NMeL]I[NEtG][Aze][NPrPhe(4-CF3)][Sar][hPhe(3-Cl-4-CF3)]P[Ac5c][NMeGly(cPent)][NMeD]-Morpholide; lactam N-11),NRAS/KRAS (ratio of KD for GDP-bound NRAS wild-type to KD for KRAS),[1]; SPR,C (A compound having a KD ratio of 0.1 or more and less than 3 is denoted as C)
same,HRAS/KRAS (ratio of KD for GDP-bound HRAS wild-type to KD for KRAS),[2]; SPR,B (a compound having 3 or more and less than 10 is denoted as B)
